“And” between values parts separate entries of the source, which are not always exact repeats. Equal entries are not always repeated.
Tests used:
P-gp [1] = experiment: P-gp functional activity, rhodamine 123 uptake with or without 100 μM verapamil; settings: LS-180 cells; for increase in P-gp activity: 48 h; for Emax (fold ↑ in P-gp activity): Hill equation fit
P-gp [2] = experiment: in vitro; settings: human
[3] = human subjects, oral administration, cited from earlier work
P-gp [4] = experiment: In vitro induction of P-gp expression, Western blotting; type: cell-based, human; settings: LS-180 cells, 25 μM, 48 h, Western blot densitometry, P-gp/β-actin
LS-180 cells = experiment: Toxicity to LS-180 cells during the induction treatment; type: cell-based, human
P-gp [5] = experiment: Immunofluorescence staining and imaging of membrane P-gp; type: cell-based, human; settings: LS-180 cells, 25 μM, 48 h, mean ± SD (n=4)

Row | SMILES | increase in P-gp activity (P-gp [1]; 5 μM) [%] | increase in P-gp activity (P-gp [1]; 25 μM) [%] | Emax (fold ↑ in P-gp activity) (P-gp [1]) [fold] | EC50 at 48 h (P-gp [2]) [µM] | decrease in digoxin area under the plasma curve (AUC) ([3]; ref Greiner et al., 1999) [%] | decrease in risperidone area under the plasma curve (AUC) ([3]; ref Kim et al., 2008) [%] | fold increase in the expression of P-gp protein compared to control (P-gp [4]) | concentration toxic to the cells (LS-180 cells) [µM] | increase in P-gp activity (P-gp [1]; 10 μM) [%] | EC50 at 48 h (P-gp [2]; LS-180 cells, probe rhodamine 123 (1 μg/mL), with verapamil 100 μM) [µM] | fold-increase in membrane P-gp expression compared to the control (P-gp [5]) [fold]
1 | CO[C@H]1/C=C/O[C@@]2(C)Oc3c(C)c(O)c4c(O)c(c(/C=N/N5CCN(C)CC5)c(O)c4c3C2=O)NC(=O)/C(C)=C\C=C\[C@H](C)[C@H](O)[C@@H](C)[C@@H](O)[C@@H](C)[C@H](OC(C)=O)[C@@H]1C [rifampicin, Rifampicin, reference compound] | 180 | 230 | 4.4 | 26.8 | 30 | 51 | 5 fold |  |  |  | 
2 | CC(C)=CCC/C(C)=C/CC/C(C)=C/CC[C@]1(C)CCc2cc(O)c(C)c(C)c2O1 [γ-tocotrienol, γ-Tocotrienol] |  |  | 1.7 |  |  |  | 2.3-3.0 fold and 2.5 fold | > 25 | > 45 | 5.9 | 4.6 ± 0.39
3 | C/C=C(/C=O)[C@@H](CC=O)CC(=O)OCCc1ccc(O)cc1 [oleocanthal, (-)-Oleocanthal] |  |  | 4.5 | 14 |  |  | 2.3-3.0 fold and 2.3 fold |  |  |  | 9.3 ± 0.37
4 | C[C@H]1[C@H](C)CC[C@]2(C(=O)O)CC[C@]3(C)C(=CC[C@@H]4[C@@]5(C)C[C@@H](O)[C@H](O)[C@@](C)(CO)[C@@H]5CC[C@]43C)[C@H]12 [asiatic acid, Asiatic acid] |  | > 45 | 1.5 | 11.3 |  |  | 2.3-3.0 fold and 2.6 fold |  |  |  | 2.5 ± 0.95

From paper PMC3190057 (Food and chemical toxicology : an international journal …, 2011)
